ChEMBL document CHEMBL1139319, “Notoamides F-K, prenylated indole alkaloids isolated from a marine-derived Aspergillus sp” (J Nat Prod, 2008)
In brackets after ≈: the same amount, converted by molar mass.

System: HeLa
Experiment: Cytotoxicity against human HeLa cells after 3 days by MTT assay
Type: functional, cell-based
Conditions: 72 h

Which IC50 does the source give for `C=CC(C)(C)[C@@]12Nc3c(ccc4c3C=CC(C)(C)O4)[C@]1(O)C[C@]1(O)C(=O)N3CCC[C@H]3C(=O)N21` [NOTOAMIDE K] here?
The IC50 was > 50 µg/mL.

With `CC1(C)C=Cc2c(ccc3c4c([nH]c23)C(C)(C)[C@@H]2C[C@]35CCCN3C(=O)[C@]2(NC5=O)C4=O)O1` [NOTOAMIDE I] as the compound, how does the IC50 read?
The IC50 was 21 µg/mL (≈ 47.1 µM).

For `C=CC(C)(C)[C@]1(C[C@@H]2NC(=O)[C@@H]3CCCN3C2=O)C(=O)Nc2cc(O)ccc21` [NOTOAMIDE J], which IC50 is on record?
The IC50 was > 50 µg/mL.

`CO[C@H]1c2c([nH]c3c4c(ccc23)OC(C)(C)C=C4)C(C)(C)[C@@H]2C[C@]34CCCN3C(=O)[C@]12NC4=O` [NOTOAMIDE F] was tested. Which IC50 did it give?
Its IC50 is > 50 µg/mL.
